Measurements: patent publication US20120156242A1 (priority 2009, published 2012)

Key:
[1] = in vivo; for eliciting of antibody (antibody titer of rabbit immune serum against the peptide): sc
monoclonal antibody D-1 = test: Inhibition by synthetic peptides of the neutralization activity of D-1; assay type: cell-based, human; settings: D-1 and influenza A virus incubated with synthetic peptide

NIPSRISIYWTIVKPGD [peptide 2]
eliciting of antibody (antibody titer of rabbit immune serum against the peptide) [1]: could elicit the antibody in rabbit | neutralization inhibition rate (monoclonal antibody D-1): about 20%

TMPNNEKFDKLYIWGVHHPGT [peptide 1]
eliciting of antibody (antibody titer of rabbit immune serum against the peptide) [1]: could elicit the antibody in rabbit | antigenicity ([1]; rabbit): high antigenicity compared with the lower region peptide | neutralization inhibition rate (monoclonal antibody D-1): about 50%
